In article PMC6471591, “Preparation of Sesquiterpene Lactone Derivatives: Cytotoxic Activity and Selectivity of Action” (Molecules, 2019):
Read-outs that look alike come from different tables or passages of the source.

Columns and labels:
HeLa cells [1] = experiment: Antiproliferative SRB assay (NCI protocol), 48 h; type: cell-based, human; conditions: splenocyte CC50 versus HeLa GI50
[2] = system: human solid tumor cell lines (A549, HBL-100, HeLa, SW1573, T-47D, WiDr); experiment: Antiproliferative SRB assay, whole panel of tumor cell lines; type: cell-based; conditions: for antiproliferative activity in words: tumor cell line panel, compared to cumanin (1); for GI50: Homo sapiens, all tested tumor cell lines, SRB, 48 h, read-out: GI50 values, range over all tested cell lines
Protocol: (§1) In vitro antiproliferative activity was evaluated using the protocol of the National Cancer Institute (NCI) after 48 h of drug exposure using the sulforhodamine B (SRB) assay. […] We cannot discard that increasing lipophilicity may well result in an increase in cytotoxicity in vitro.
(§2) The following human solid tumor cell lines were used in this study: HBL-100 (breast), HeLa (cervix), SW1573 (non-small cell lung), T-47D (breast), A549 (lung), and WiDr (colon). Cells were maintained in 25 cm^2 culture flasks in RPMI 1640 supplemented with 5% heat-inactivated fetal calf serum and 2 mM L-glutamine in a 37 °C, 5% CO2, 95% humidified air incubator. Exponentially growing cells were trypsinized and resuspended in antibiotic containing medium (100 units penicillin G and 0.1 mg of streptomycin per mL). Single-cell suspensions displaying >97% viability by trypan blue dye exclusion test were subsequently counted. After counting, dilutions were made to give the appropriate cell densities for inoculation onto 96-well microtiter plates. Cells were inoculated in a volume of 100 μL per well at densities of 20,000 (WiDr), 15,000 (T-47D and A549), and 10,000 (HeLa, SW1573, and HBL-100) cells per well, based on their doubling times.
(§3) Chemosensitivity tests were performed using the SRB assay of the NCI with slight modifications. Briefly, pure compounds were initially dissolved in DMSO at 400 times the desired final maximum test concentration. Control cells were exposed to an equivalent concentration of DMSO (0.25% v/v, negative control). Each agent was tested in triplicate at different dilutions in the range 1–100 μM. Drug treatment started on day 1 after plating. Drug incubation periods were 48 h, after which cells were precipitated with 25 μL of ice-cold 50% (w/v) trichloroacetic acid and fixed for 60 min at 4 °C. Then, the SRB assay was performed. Optical density (OD) of each well was measured at 492 nm, using BioTek’s PowerWave XS Absorbance Microplate Reader (Highland Park, Winooski, VT, USA). Values were corrected for background OD from wells containing only culture medium. The percentage growth (PG) was calculated with respect to untreated control cells (C) at each level of drug concentrations based on the difference in OD at the start time (T0) and at the end of drug exposure (T), according to NCI formulas. Therefore, if T is greater than or equal to T0, the calculation is 100 × [(T–T0)/(C–T0)]. If T is lower than T0, denoting cell death, the calculation is 100 × [(T–T0)/(T0)]. The effect is defined as the growth percentage, where 50% growth inhibition (GI50) represents the concentration at which PG is +50. Based on these calculations, a PG value of 0 corresponds to the number of cells present at the beginning of drug exposure, while negative PG values denote net cell death.

HBL100 cells [3] = experiment: Antiproliferative SRB assay (NCI protocol), 48 h; type: cell-based, human; conditions: splenocyte CC50 versus HBL100 GI50
HeLa cells [4] = experiment: Antiproliferative SRB assay (NCI protocol), 48 h; type: cell-based; conditions: Homo sapiens; HeLa (cervix), SRB, 48 h drug exposure; read-out: 50% growth inhibition (GI50) ± SD, HeLa
Protocol: as §1, §2, §3

HBL100 cells [5] = experiment: Antiproliferative SRB assay (NCI protocol), 48 h; type: cell-based; conditions: Homo sapiens, HBL-100; HBL100 (breast), SRB, 48 h drug exposure; read-out: 50% growth inhibition (GI50) ± SD, HBL100
Protocol: as §1, §2, §3

A549 cells [6] = experiment: Antiproliferative SRB assay (NCI protocol), 48 h; type: cell-based; conditions: Homo sapiens; A549 (lung), SRB, 48 h drug exposure; read-out: 50% growth inhibition (GI50) ± SD, A549
Protocol: as §1, §2, §3

A549 cells [7] = experiment: Antiproliferative SRB assay (NCI protocol), 48 h; type: cell-based, human; conditions: splenocyte CC50 versus A549 GI50
WiDr cells = experiment: Antiproliferative SRB assay (NCI protocol), 48 h; type: cell-based, human; conditions: for GI50: Homo sapiens, WiDr (colon), SRB, 48 h drug exposure, read-out: 50% growth inhibition (GI50) ± SD, WiDr; for Selectivity Index, WiDr: splenocyte CC50 versus WiDr GI50
Protocol: as §1, §2, §3

T47-D cells = experiment: Antiproliferative SRB assay (NCI protocol), 48 h; type: cell-based, human; conditions: for GI50: Homo sapiens, T47D, T47-D (breast), SRB, 48 h drug exposure, read-out: 50% growth inhibition (GI50) ± SD, T47-D; for Selectivity Index, T47-D: splenocyte CC50 versus T47-D GI50
Protocol: as §1, §2, §3

SW1573 cells = experiment: Antiproliferative SRB assay (NCI protocol), 48 h; type: cell-based, human; conditions: for GI50: Homo sapiens, SW1573 (non-small cell lung), SRB, 48 h drug exposure, read-out: 50% growth inhibition (GI50) ± SD, SW1573; for Selectivity Index, SW1573: splenocyte CC50 versus SW1573 GI50
Protocol: as §1, §2, §3

[8] = Cytotoxicity on primary cell culture (propidium iodide, flow cytometry); type: cell-based
Protocol: The cytotoxicity of the sesquiterpene lactones and its derivatives was evaluated using mouse splenocytes. […] Cumanin derivatives (4–11) have shown CC50 values and selectivity indexes higher than natural compound 1. […] The incorporation of two triazole groups in cumanin (1) reduced cytotoxicity on normal cells and improved selectivity against tumor cell lines.
In a 96-well plate, spleen cells from Balb/c mouse (1.5 × 10^5) were incubated with different drug dilutions (200, 100, 50, 10, and 5 μg/mL) in RPMI medium containing 10% fetal calf serum. After 48 h of incubation at 37 °C (5% CO2), cells were harvested, washed once with PBS, and stained with 2.5 μg/mL propidium iodide (PI) for 5 min at room temperature. Subsequently, cell death was assessed by flow cytometry using a BD FACSaria II cytometer. Cells incubated only with a drug vehicle were used as a 100% viability control and death percentage was calculated according to the following formula: Death(%)=[1−(%PI^−cells)drug−treated/(%PI^−cells)100% viability control]×100.
Then the concentration capable of causing cell death in 50% of splenocytes (CC50) was determined using a non-linear regression approach.

[9] = primary mouse splenocytes (spleen cells), Balb/c mouse spleen cells, 48 h incubation, PI staining, read-out: CC50 ± SD, splenocytes (concentration that causes 50% cell death)

| Compound | Selectivity Index, HeLa (HeLa cells [1]) | antiproliferative activity in words [2] | Selectivity Index, HBL100 (HBL100 cells [3]) | GI50 (HeLa cells [4]) | GI50 (HBL100 cells [5]) | GI50 (A549 cells [6]) | Selectivity Index, A549 (A549 cells [7]) | GI50 (WiDr cells) | Selectivity Index, WiDr (WiDr cells) | GI50 (T47-D cells) | Selectivity Index, T47-D (T47-D cells) | GI50 (SW1573 cells) | Selectivity Index, SW1573 (SW1573 cells) | CC50 at 48 h [8, 9] | GI50 [2] | CC50 at 48 h ([8]; Balb/c, mouse) |
| --- | --- | --- | --- | --- | --- | --- | --- | --- | --- | --- | --- | --- | --- | --- | --- | --- |
| C=C1C(=O)OC2CC(C)C3CC(OCc4cn(Cc5ccccc5)nn4)C(O)C3(C)CC12 (stereo not shown) [Compound 10] | 3.5 | moderate activity | 3.9 | 32 µM | 29 µM | 18 µM | 6.3 | 30 µM | 3.8 | 37 µM | 3.1 | 32 µM | 3.5 | 114 µM | – | – |
| C=C1C(=O)O[C@@H]2C[C@@H](C)[C@@H]3C=CC(=O)[C@@]3(C)[C@@H](O[Si](C)(C)C(C)C)[C@H]12 [Compound 14] | 9.3 | – | 7.0 | 0.15 µM | 0.2 µM | 0.28 µM | 5.0 | 0.26 µM | 5.4 | 0.36 µM | 3.9 | 0.19 µM | 7.4 | – | 0.15 to 0.59 µM | 1.4 µM |
| C=C1C(=O)O[C@@H]2C[C@H](C)[C@@H]3C[C@H](OC(C)=O)[C@H](OC(C)=O)[C@@]3(C)C[C@H]12 [Compound 4] | 15.0 | moderate activity | 10.5 | 16 µM | 23 µM | 24 µM | 10.0 | 27 µM | 8.9 | 26 µM | 9.3 | 11 µM | 21.9 | – | – | – |
| C#CCOC1CC2C(C)CC3OC(=O)C(=C)C3CC2(C)C1O (stereo not shown) [Compound 8] | 9.5 | moderate activity | 10.6 | 19 µM | 17 µM | 18 µM | 10.0 | 7.2 µM | 25.1 | 24 µM | 7.5 | 28 µM | 6.4 | – | – | – |
| C=C1C(=O)O[C@@H]2C[C@@H](C)[C@@H]3C=CC(=O)[C@@]3(C)[C@@H](O[Si](C)(C)C)[C@H]12 [Compound 13] | 5.8 | – | 3.0 | 0.19 µM | 0.36 µM | 0.59 µM | 1.9 | 0.56 µM | 2.0 | 0.29 µM | 3.8 | 0.28 µM | 3.9 | – | 0.15 to 0.59 µM | 1.1 µM |
| C=C1C(=O)OC2CC(C)C3CC(OCc4cn(Cc5ccccc5)nn4)C(OCc4cn(Cc5ccccc5)nn4)C3(C)CC12 (stereo not shown) [Compound 11] | 88.8 | – | 81.9 | 5.9 µM | 6.4 µM | 3.7 µM | 141.6 | 2.3 µM | 227.9 | 9.7 µM | 54.0 | 4.7 µM | 111.5 | 524 µM | – | – |
| C#CCOC1CC2C(C)CC3OC(=O)C(=C)C3CC2(C)C1OCC#C (stereo not shown) [Compound 9] | 3.9 | moderate activity | 4.9 | 24 µM | 19 µM | 17 µM | 5.5 | 2.1 µM | 44.5 | 24 µM | 3.9 | 20 µM | 4.7 | – | – | – |
